# Laboratory results: patent publication US7728174B2, “Continuous hydrogenation processes for the preparation of xylylenediamines” (BASF SE, priority 2005, dated 2010)
# Assay: solubility of IPN in ammonia, meta-xylylenediamine and their mixtures
# Type: physicochemical
compound,measurement,setting,value
"N#Cc1cccc(C#N)c1 [IPN, 1,3-dicyanobenzene]",solubility of IPN in the mixture,"Example 1 mixture: 178 g/h circulation stream [13] and 94 g/h fresh ammonia, at 60° C.",about 30 % by weight
same,solubility of IPN in the mixture,"Example 2 mixture: 320 g/h circulation stream [13] and 40 g/h fresh ammonia, at 60° C.",about 25 % by weight
same,solubility of IPN,"in MXDA, at 70° C.",approx. 20 % by weight
same,solubility of IPN,"in NH3, at 60° C.",approx. 44 % by weight
same,solubility of IPN,"in a mixture of approximately equal parts by mass of meta-xylylenediamine and liquid ammonia, at 60° C.",approx. 30 % by weight
same,solubility of IPN,"in meta-xylylenediamine, at 60° C.",approx. 15 % by weight
